From patent US20160313301A1, “METHOD FOR PREDICTING ANTITUMOR EFFICACY OF HSP90 INHIBITOR IN CANCER TREATMENT” (NIPPON KAYAKU KABUSHIKI KAISHA, priority 2013, published 2016)

Tests used:
Assay type in all cases: in vivo
[1] = system: human breast cancer cells JIMT-1; assay: Anti-tumor test in mice transplanted subcutaneously with tumor (JIMT-1); settings: JIMT-1 s.c. in mice; 125 mg/kg tail vein three times at 7 day intervals
Procedure: (§1) Human ovarian cancer cell lines OC-10-JCK, OC-11-JCK, and TOGY-18, and a human breast cancer cell line MC-19-JCK were obtained from Central Institute for Experimental Animals. Cryopreserved tumor pieces were thawed, and then OC-10-JCK, OC-11-JCK, and MC-19-JCK were transplanted subcutaneously to SCID mice, while TOGY-18 was transplanted subcutaneously to nude mice. After the tumors were grown, the tumors were removed and cut into tumor pieces. The tumor pieces were transplanted subcutaneously to SCID mice or nude mice with trocars. The tumors were maintained by repeated transplantation in the same manner as described above to prepare tumors to be transplanted. Human ovarian cancer cell lines ES-2, SK-OV-3, OV-90, and TOV-21G, and a human lung cancer cell line NCI-H1975 were obtained from American Type Culture Collection (ATCC). The SK-OV-3 and NCI-H1975 cell lines were grown in recommended culture media, of which about 1×10^7 cells were suspended into HBSS and then injected subcutaneously to SCID mice. After the cells formed tumors, the tumors were removed and cut into tumor pieces. The tumor pieces were transplanted subcutaneously to SCID mice with trocars. The tumors were maintained by repeated transplantation in the same manner as described above to prepare tumors to be transplanted. […]

[2] = system: human lung cancer cells NCI-H1975; assay: Anti-tumor test in mice transplanted subcutaneously with tumor (NCI-H1975); settings: NCI-H1975 s.c. in mice; 150 mg/kg tail vein three times at 7 day intervals
Procedure: as §1

[3] = system: human breast cancer cells MC-19-JCK; assay: Anti-tumor test in mice transplanted subcutaneously with tumor (MC-19-JCK); settings: MC-19-JCK s.c. in mice; administered once at 125 mg/kg
Procedure: as §1

[4] = system: human ovarian cancer cells OC-11-JCK/PTX; assay: Anti-tumor test in mice transplanted subcutaneously with tumor (OC-11-JCK/PTX); settings: OC-11-JCK/PTX s.c. in mice; 125 mg/kg tail vein three times at 7 day intervals
Procedure: Human ovarian cancer cell lines OC-10-JCK, OC-11-JCK, and TOGY-18, and a human breast cancer cell line MC-19-JCK were obtained from Central Institute for Experimental Animals. Cryopreserved tumor pieces were thawed, and then OC-10-JCK, OC-11-JCK, and MC-19-JCK were transplanted subcutaneously to SCID mice, while TOGY-18 was transplanted subcutaneously to nude mice. After the tumors were grown, the tumors were removed and cut into tumor pieces. The tumor pieces were transplanted subcutaneously to SCID mice or nude mice with trocars. The tumors were maintained by repeated transplantation in the same manner as described above to prepare tumors to be transplanted. Human ovarian cancer cell lines ES-2, SK-OV-3, OV-90, and TOV-21G, and a human lung cancer cell line NCI-H1975 were obtained from American Type Culture Collection (ATCC). The SK-OV-3 and NCI-H1975 cell lines were grown in recommended culture media, of which about 1×10^7 cells were suspended into HBSS and then injected subcutaneously to SCID mice. After the cells formed tumors, the tumors were removed and cut into tumor pieces. The tumor pieces were transplanted subcutaneously to SCID mice with trocars. The tumors were maintained by repeated transplantation in the same manner as described above to prepare tumors to be transplanted. The OV-90 cell line was grown in a recommended culture medium, of which about 1×10^6 cells were suspended into HBSS and then injected subcutaneously to SCID mice. After the cells formed a tumor, the tumor was subjected to an anti-tumor test. The TOV-21G cell line was grown in a recommended culture medium, of which about 1×10^7 cells were suspended into HBSS and then injected subcutaneously to SCID mice. After the cells formed a tumor, the tumor was subjected to the anti-tumor test. The ES-2 cell line was grown in a recommended culture medium, suspended into HBSS, and then injected subcutaneously to nude mice. After the cells formed a tumor, the tumor was removed and cut into tumor pieces. The tumor pieces were transplanted subcutaneously to nude mice with a trocar. […]

[5] = system: human ovarian cancer cells TOGY-18; assay: Anti-tumor test in mice transplanted subcutaneously with tumor (TOGY-18); settings: TOGY-18 s.c. in mice; 125 mg/kg tail vein three times at 7 day intervals
Procedure: as §1

## CC(C)c1cc(-c2n[nH]c(=O)n2-c2ccc3c(ccn3C)c2)c(O)cc1O [Ganetespib, reference compound]
[1]
  T/C % (lowest value from the beginning to the 21st day of administration): 56.6%
[2]
  T/C % (lowest value from the beginning to the 21st day of administration): 44.0%
[3]
  T/C % (lowest value from the beginning to the 21st day of administration): 19.8%
[4]
  T/C % (lowest value from the beginning to the 21st day of administration): 84.0%
[5]
  T/C % (lowest value from the beginning to the 21st day of administration): 67.7%
